{"source": "patent US20070142367A1", "about": "“METHOD AND MEDICINE FOR TREATING GASTROINTESTINAL DISORDER INCLUDING FECAL INCONTINENCE” (priority 2003, published 2007)", "key": {"human patient": {"test_system": "human patient", "experiment": "Side effects noted in patients under daily oral treatment (case examples)", "conditions": "Example 3: 75 mg imipramine pamoate daily without stool softener", "description": "(§1) The patient takes TYLOX, oxycontin, neurotin, aspirin, and anti-coagulants."}, "[1]": {"test_system": "human having a gastrointestinal disorder that includes fecal incontinence", "experiment": "Treatment of ambulatory patients having fecal incontinence with daily oral medicine (case examples)", "assay_type": "in vivo", "conditions": "Example 3: person, sprain lumbar spine, 75 mg imipramine pamoate daily without stool softener, after several days", "description": "as §1"}}, "data": [{"smiles": "CN(C)CCCN1c2ccccc2CCc2ccccc21.CN(C)CCCN1c2ccccc2CCc2ccccc21.O=C(O)c1cc2ccccc2c(Cc2c(O)c(C(=O)O)cc3ccccc23)c1O", "note": "[imipramine pamoate, 5-[3-(dimethylamino)propyl]-10,11-dihydro-5H-dibenzazepine 4,4-methlyenebis-(3-hydroxy-2-napthoate)]", "values": [{"measurement": "side effects", "setting": "human patient", "value": "develops constipation"}, {"measurement": "bladder and bowel functions as noted by patient", "setting": "[1]", "value": "full control of bladder and bowel functions"}]}]}
